Like-named read-outs stand apart in the source and are kept apart here.

For this experiment, the target named is T1, HIV protease (Human immunodeficiency virus type 1 group M subtype B, UniProt P04585).
T1 construct: HIV protease is diluted in the assay buffer to a final enzyme concentration of 12.3 nanomolar, based on a molecular weight of 10,780
Kind of experiment: HIV protease enzyme assay (fluorescence, substrate 2-Ile-Nle-Phe(p-NO2)-Gln-ArgNH2). The settings on record: HIV protease enzyme assay. It counts as biochemical. The protocol: The enzyme method is described below. […] The positive control is MVT-101 (Miller, M. et al, Science, 246, 1149 (1989)] The assay conditions are as follows:
Assay buffer: 20 mM sodium phosphate, pH 6.4 20% glycerol 1 mM EDTA 1 mM DTT 0.1% CHAPS
The above described substrate is dissolved in DMSO, then diluted 10 fold in assay buffer. Final substrate concentration in the assay is 80 μM.
The final concentration of DMSO is 14% and the final concentration of glycerol is 18%. The test compound is dissolved in DMSO and diluted in DMSO to 10× the test concentration; 10 μl of the enzyme preparation is added, the materials mixed and then the mixture is incubated at ambient temperature for 15 minutes. The enzyme reaction is initiated by the addition of 40 μl of substrate. The increase in fluorescence is monitored at 4 time points (0, 8, 16 and 24 minutes) at ambient temperature. Each assay is carried out in duplicate wells.

Consider `O=C(N[C@@H](Cc1ccccc1)[C@H](O)CN(C1CCCCC1)S(=O)(=O)c1ccccc1)OCc1ccccc1` [Entry 5], for which the IC50 (Table 18A, read-out: IC50) amounted to 19 nM and the IC50 (Table 21, read-out: IC50) was determined as 19 nM.
With `CC(C)CCN(C[C@@H](O)[C@H](Cc1ccccc1)NC(=O)OCc1ccccc1)S(=O)(=O)c1ccc([N+](=O)[O-])cc1` [Entry 6], the IC50 (Table 18A, read-out: IC50) was determined as 10 nM.
Take `CC(C)CCN(C[C@@H](O)[C@H](Cc1ccccc1)NC(=O)[C@@H](NC(=O)CN(C)C)C(C)(C)C)S(C)(=O)=O` [Entry 6]: the IC50 (IC50 (nM), Table 21) is over 100 nM.
As to `CCCN(C[C@@H](O)[C@H](Cc1ccccc1)NC(=O)[C@H](CC(N)=O)NC(=O)OCc1ccccc1)S(=O)(=O)c1ccccc1` [Entry 7], the IC50 (Table 18A, read-out: IC50) was 3.6 nM.
Same read-out and setting: the same measure for `CC(C)CCN(C[C@@H](O)[C@H](Cc1ccccc1)NC(=O)[C@H](Cc1c[nH]cn1)NC(=O)OCc1ccccc1)S(=O)(=O)c1ccccc1` [Entry 8]: 4.2 nM.
`CC(C)CCN(C[C@@H](O)[C@H](Cc1ccccc1)NC(=O)c1ccccc1)S(=O)(=O)c1ccccc1` [Entry 8]: for the setting “IC50 (nM), Table 21”, half-maximal inhibition (IC50) was put at 85 nM.
In the case of `CC(C)CCN(C[C@@H](O)[C@H](Cc1ccccc1)NC(=O)[C@@H](NC(=O)CN(C)C)C(C)(C)C)S(=O)(=O)c1ccccc1` [Entry 9], the IC50 (Table 18A, read-out: IC50) stood at 3.5 nM.
Regarding `COCCCN(C[C@@H](O)[C@H](Cc1ccccc1)NC(=O)OCc1ccccc1)S(=O)(=O)c1ccccc1` [Entry 9], the IC50 (Table 21, read-out: IC50) stood at 53 nM.
Turning to `CC(C)CCN(C[C@@H](O)[C@H](Cc1ccccc1)NC(=O)OCc1ccccc1)S(=O)(=O)c1cccs1` [Entry 10], the IC50 (Table 18A, read-out: IC50) was 100 nM.
Consider `CSCCCN(C[C@@H](O)[C@H](Cc1ccccc1)NC(=O)OCc1ccccc1)S(=O)(=O)c1ccccc1` [Entry 10], for which, under “Table 21, read-out: IC50”, the IC50 worked out at 45 nM.
Regarding `CC(C)CCN(C[C@@H](O)[C@H](Cc1ccccc1)NC(=O)[C@@H](NC(=O)CN(C)C)C(C)(C)C)S(=O)(=O)c1ccccc1` [Entry 11], it took 3 nM to reach half-maximal inhibition (IC50 (nM), Table 21) (IC50).
Regarding `CC(C)CCN(C[C@@H](O)[C@H](Cc1ccccc1)NC(=O)[C@@H](NC(=O)OCc1ccccc1)C(C)(C)C)S(C)(=O)=O` [Entry 11], the IC50 (Table 18A, read-out: IC50) was 81 nM.
`CC(C)CCN(C[C@@H](O)[C@H](Cc1ccccc1)NC(=O)[C@H](Cc1cnc[nH]1)NC(=O)c1ccc2ccccc2n1)S(=O)(=O)c1ccccc1` [Entry 12] came in with an IC50 (IC50 (nM), Table 21) of 2 nM.
On to `CCOc1ccc(S(=O)(=O)N(CC(C)C)C[C@@H](O)[C@H](Cc2ccccc2)NC(=O)OCc2ccccc2)cc1` [Entry 12], for which, under “Table 18A, read-out: IC50”, the IC50 was found to be 20 nM.
For the setting “IC50 (nM), Table 21”, `CCC(C)[C@H](NC(=O)CN(C)C)C(=O)N[C@@H](Cc1ccccc1)[C@H](O)CN(CCC(C)C)S(=O)(=O)c1ccccc1` (some centres unmarked) [Entry 14] came in with an IC50 of 4 nM.
Take `CCC(C)[C@H](NC(=O)CN(C)C)C(=O)N[C@@H](Cc1ccccc1)[C@H](O)CN(CC(C)C)S(=O)(=O)c1ccc(OC)cc1` (some centres unmarked) [Example 13]: the IC50 (Table 21, read-out: IC50) came out at 3 nM.
On the same count and under the same terms, the same measure for `CC(C)CN(C[C@@H](O)[C@H](Cc1ccccc1)NC(=O)OCc1cccnc1)S(=O)(=O)c1ccc(Cl)cc1` [Example 18]: 4 nM; for `CC(C)CN(C[C@@H](O)[C@H](Cc1ccccc1)NC(=O)OCc1cccnc1)S(=O)(=O)c1ccc([N+](=O)[O-])cc1` [Example 19]: 8 nM.
For the compound `CC(C)CN(C[C@@H](O)[C@H](Cc1ccccc1)NC(=O)OCc1cccnc1)S(=O)(=O)c1ccc(O)cc1` [Example 20], the IC50 (Table 21, read-out: IC50) was found to be 4 nM.
The same measure, in the same setting: under `COc1ccc(S(=O)(=O)N(CC(C)C)C[C@@H](O)[C@H](Cc2ccccc2)NC(=O)OCc2ccccn2)cc1` [Example 21] stands 73 nM.
Same read-out and setting: under `COc1ccc(S(=O)(=O)N(CC(C)C)C[C@@H](O)[C@H](Cc2ccccc2)NC(=O)OCc2cncnc2)cc1` [Example 23] stands 2 nM; under `COc1ccc(S(=O)(=O)N(CC(C)C)C[C@@H](O)[C@H](Cc2ccccc2)NC(=O)OCc2cc[n+]([O-])cc2)cc1` [Example 26], 68 nM; under `COc1ccc(S(=O)(=O)N(CC(C)C)C[C@@H](O)[C@H](Cc2ccccc2)NC(=O)C2CCCCC2)cc1` [Example 35], 18 nM.
Still for that read-out and setting: under `COc1ccc(S(=O)(=O)N(CC(C)C)C[C@@H](O)[C@H](Cc2ccccc2)NC(=O)c2cccc(N(C)C)c2C)cc1` [Example 36] stands 310 nM; under `Cc1ccccc1C(=O)N[C@@H](Cc1ccccc1)[C@H](O)CN(CC(C)C)S(=O)(=O)c1ccc(O)cc1` [Example 37], 7 nM.
Consider `COc1ccc(S(=O)(=O)N(CC(C)C)C[C@@H](O)[C@H](Cc2ccccc2)NC(=O)OCc2ccc(N)nc2)cc1` [Example 38], for which the half-inhibitory concentration (IC50) (Table 21, read-out: IC50) amounted to 4 nM.
For the compound `COc1ccc(S(=O)(=O)N(CC(C)C)C[C@@H](O)[C@H](Cc2ccccc2)NC(=O)OCc2ccc(O)nc2)cc1` [Example 39], for the setting “Table 21, read-out: IC50”, the IC50 was 16 nM.
As to `CC(C)CN(C[C@@H](O)[C@H](Cc1ccccc1)NC(=O)OCc1ccc(N)nc1)S(=O)(=O)c1ccc(O)cc1` [Example 40], for the setting “Table 21, read-out: IC50”, the IC50 amounted to 3 nM.
Same read-out and setting: the same measure for `CC(C)CN(C[C@@H](O)[C@H](Cc1ccccc1)NC(=O)OCc1cncnc1)S(=O)(=O)c1ccc(O)cc1` [Example 41]: 3 nM; for `CC(C)CN(C[C@@H](O)[C@H](Cc1ccccc1)NC(=O)O[C@H]1CCSC1)S(=O)(=O)c1ccc(O)cc1` [Example 42]: 2 nM.
On the same count and under the same terms, under `CC(C)CN(C[C@@H](O)[C@H](Cc1ccccc1)NC(=O)O[C@H]1CCS(=O)(=O)C1)S(=O)(=O)c1ccc(O)cc1` [Example 43] stands 4 nM; under `COc1ccc(S(=O)(=O)N(CC(C)C)C[C@@H](O)[C@H](Cc2ccccc2)NC(=O)O[C@H]2CCOC2)cc1` [Example 44], 4 nM; under `CC(C)CN(C[C@@H](O)[C@H](Cc1ccccc1)NC(=O)O[C@H]1CCOC1)S(=O)(=O)c1ccc(O)cc1` [Example 45], 2 nM.
The same measure, in the same setting: the same measure for `COc1ccc(S(=O)(=O)N(CC(C)C)C[C@@H](O)[C@H](Cc2ccccc2)NC(=O)O[C@H]2CCSC2)cc1` [Example 46]: 2 nM; for `COc1ccc(S(=O)(=O)N(CC(C)C)C[C@@H](O)[C@H](Cc2ccccc2)NC(=O)O[C@H]2CCS(=O)(=O)C2)cc1` [Example 47]: 3 nM.
`COc1ccc(S(=O)(=O)N(CC(C)C)C[C@@H](O)[C@H](Cc2ccccc2)NC(=O)c2cccc([N+](=O)[O-])c2C)cc1` [Example 48]: the IC50 (Table 21, read-out: IC50) was 17 nM.
Still for that read-out and setting: under `COc1ccc(S(=O)(=O)N(CC(C)C)C[C@@H](O)[C@H](Cc2ccccc2)NC(=O)c2ccc([N+](=O)[O-])cc2C)cc1` [Example 50] stands 14 nM; under `COc1ccc(S(=O)(=O)N(CC(C)C)C[C@@H](O)[C@H](Cc2ccccc2)NC(=O)c2cc([N+](=O)[O-])ccc2C)cc1` [Example 53], 21 nM.
Consider `COc1ccc(S(=O)(=O)N(CC(C)C)C[C@@H](O)[C@H](Cc2ccccc2)NC(=O)c2cc(N(C)C)ccc2C)cc1` [Example 55], for which the IC50 (Table 21, read-out: IC50) worked out at 37 nM.
In the case of `COc1ccc(S(=O)(=O)N(CC(C)C)C[C@@H](O)[C@H](Cc2ccccc2)NC(=O)OCc2cncs2)cc1` [Example 56], the IC50 (Table 21, read-out: IC50) is 4 nM.
Same read-out and setting: the same measure for `CC(C)CN(C[C@@H](O)[C@H](Cc1ccccc1)NC(=O)OCc1cncs1)S(=O)(=O)c1ccc(O)cc1` [Example 57]: 4 nM.
Same read-out and setting: the same measure for `COc1ccc(S(=O)(=O)N(CC(C)C)C[C@@H](O)[C@H](Cc2ccccc2)NC(=O)OCc2ccoc2)cc1` [Example 58]: 2 nM.
The same measure, in the same setting: under `CC(C)CN(C[C@@H](O)[C@H](Cc1ccccc1)NC(=O)OCc1ccoc1)S(=O)(=O)c1ccc(N)cc1` [Example 60] stands 5 nM.

One may read the IC50 as the midpoint of a concentration-inhibition curve.
